According to patent EP0392384B1, “Targeted forms of methyltrithio antitumor agents” (AMERICAN CYANAMID COMPANY, priority 1989, dated 1990):

Key:
[1] = system: lymphocytic leukemia P388; assay: Lymphocytic Leukemia P388 Test; format: in vivo, BDF1 female mice; conditions: for T/Cx100 %: survival time treated/control
Source text: These have been reported in "Cancer Chemotherapy Reports", Part III, Vol. 3, No. 2 (1972), Geran, et. al. These protocols have established standardized screening tests which are generally followed in the field of testing for antitumor agents. Of these systems, lymphocytic leukemia P388, melanotic melanoma B16, L1210 leukemia and colon 26 adenocarcinoma are particularly significant to the present invention. These neoplasms are utilized for testing as transplantable tumors in mice.
The animals used were BDF1 female mice. There were 5 or 6 mice per test group. The tumor transplant was by intraperitoneal injection of 0.5 ml of dilute ascitic fluid containing 1 x 10^6 cells of lymphocytic leukemia P388 on day zero. The test compounds were administered intraperitoneally at a volume of 0.5 ml in sterile, pyrogen free saline on days 1, 5 and 9 (relative to tumor inoculation) at the indicated doses. The mice were weighed and survivors recorded on a regular basis for 30 days. The median survival time and the ratio of survival time for treated (T)/control (C) animals were calculated. Values of T/C greater than or equal to 125 are considered to reflect significant antitumor activity.

[2] = system: human Burkitt lymphoma cell line Raji TC; assay: In vivo antitumor test, human tumor xenograft Raji; design: species or system athymic (nude) mice; conditions: no MoAb, iv, three injections starting on day 7, day 35 post-implantation
[3] = system: human colon cancer cell line LS174T; assay: In vivo antitumor test, human tumor xenograft LS174T; design: species or system athymic (nude) mice; conditions: no MoAb, iv, three injections started on day 8, day 21 post-implantation
[4] = system: human breast cancer cell line MX-1; assay: In vivo antitumor test, human tumor xenograft MX-1; design: species or system athymic (nude) mice; conditions: no MoAb, iv, three injections starting on day 2, day 42 post-implantation
[5] = dose 0.0025 mg/kg intraperitoneally on days 1, 5 and 9
[6] = dose 0.005 mg/kg intraperitoneally on days 1, 5 and 9
[7] = dose 0.0006 mg/kg intraperitoneally on days 1, 5 and 9
[8] = dose 0.00125 mg/kg intraperitoneally on days 1, 5 and 9
[9] = dose 0.020 mg/kg intraperitoneally on days 1, 5 and 9
[10] = dose 0.040 mg/kg intraperitoneally on days 1, 5 and 9
[11] = dose 0.080 mg/kg intraperitoneally on days 1, 5 and 9
[12] = dose 0.0003 mg/kg intraperitoneally on days 1, 5 and 9
[13] = dose 0.010 mg/kg intraperitoneally on days 1, 5 and 9

3-Mercaptopropionic Acid Disulfide of LL-E33288γ1^I
T/Cx100 % [1, 5]: 125%
T/Cx100 % [1, 6]: 145%

3-Mercaptobutyryl hydrazide disulfide of LL-E33288γ1-I
Median Survival [1, 7]: 19.5 days
T/Cx100 % [1, 7]: 130%
Median Survival [1, 8]: 21.0 days
T/Cx100 % [1, 8]: 140%
Median Survival [1, 5]: 23.0 days
T/Cx100 % [1, 5]: 153%
Median Survival [1, 6]: 28.5 days
T/Cx100 % [1, 6]: 190%

N-acetyl LL-E33288δ1^I [reference compound]
S/T ([2]; Drug 0.5 mcg): 6/6
Tumor Size (T/C)%control ([2]; Drug 0.5 mcg): 226 %control
S/T ([3]; Drug 2.0 mcg): 1/6
Tumor Size (T/C)%control ([3]; Drug 2.0 mcg): 32 %control
S/T ([4]; Drug 1.0 mcg): 2/6
Tumor Size (T/C)%control ([4]; Drug 1.0 mcg): 46 %control

3-Mercaptopropionyl hydrazide disulfide of N-acetyl LL-E33288γ1^I
Median Survival [1, 9]: 15.0 days
T/Cx100 % [1, 9]: 125%
Median Survival [1, 10]: 18.0 days
T/Cx100 % [1, 10]: 150%
Median Survival [1, 11]: 21.0 days
T/Cx100 % [1, 11]: 175%

Hydrazide of 3-mercaptopropionic acid disulfide of N-acetyl LL-E33288δ1^I [Hydrazide alone]
S/T ([2]; Drug 1.0 mcg): 6/6
Tumor Size (T/C)%control ([2]; Drug 1.0 mcg): 517 %control
S/T ([4]; Drug 2.0 mcg): 3/6
Tumor Size (T/C)%control ([4]; Drug 2.0 mcg): 71 %control

3-Mercaptoisovaleryl hydrazide disulfide of LL-E33288q1-I
Median Survival [1, 12]: 14.0 days
T/Cx100 % [1, 12]: 133%
Median Survival [1, 7]: 13.0 days
T/Cx100 % [1, 7]: 124%
Median Survival [1, 8]: 16.0 days
T/Cx100 % [1, 8]: 152%
Median Survival [1, 5]: 17.0 days
T/Cx100 % [1, 5]: 162%
Median Survival [1, 6]: 18.0 days
T/Cx100 % [1, 6]: 171%
Median Survival [1, 13]: 26.5 days
T/Cx100 % [1, 13]: 252%

3-Mercaptopropionyl hydrazide disulfide of LL-E33288α2-I
Median Survival [1, 8]: 18.5 days
T/Cx100 % [1, 8]: 161%
Median Survival [1, 5]: 18.5 days
T/Cx100 % [1, 5]: 161%
Median Survival [1, 6]: 21.0 days
T/Cx100 % [1, 6]: 183%
Median Survival [1, 13]: 26.5 days
T/Cx100 % [1, 13]: 230%

CC[C@]1(O)C[C@H]2CN(CCc3c([nH]c4ccccc34)[C@@](C(=O)OC)(c3cc4c(cc3OC)N(C=O)[C@H]3[C@@](O)(C(=O)OC)[C@H](OC(C)=O)[C@]5(CC)C=CCN6CC[C@]43[C@@H]65)C2)C1 [Vincristine]
S/T ([3]; Drug 20 mcg): 6/6
Tumor Size (T/C)%control ([3]; Drug 20 mcg): 23 %control
